# Experimental data as given in US20240307346A1, “METHOD FOR TREATING OR PREVENTING A DISEASE OF INCOMPLETE IMMUNE RECONSTITUTION IN AIDS USING (5R)-5-HYDROXYTRIPTOLIDE” (PEKING UNION MEDICAL COLLEGE HOSPITAL, priority 2018, published 2024).
# Assays:
# IL-6 = experiment: Phase II trial: IL-6; type: in vivo, human; details: 1 mg daily (HT8), Week 48
# Description: (§1) The phase II, double-blind, randomized, placebo-controlled trial was conducted in adults patients with long-term suppressed HIV infection and suboptimal CD4 recovery, at nine hospitals in China.
# (§2) The patients were 1:1:1 assigned to receive oral T8 0.5 mg or 1 mg daily, or placebo combined with antiretroviral therapy for 48 weeks. All study staff and participants were masked. The study drug was recommended to be taken in the morning on an empty stomach, and be separated from participants' daily ART. Participants were followed and assessed at Week 4, 12, 24, 36 and 48 of treatment. On each scheduled visit, the investigator would assess the participant's general status, newly-onset symptoms and signs, and adverse events.
# (§3) The primary endpoints of the study included 1) Absolute change of CD4 counts from baseline to week 48: 2) Proportions of participants achieving a CD4 increase ≥50 cells/mm^3 from baseline to week 48: and 3) changes of selected inflammatory markers from baseline to week 48, including interferon-y-induced protein 10 (IP-10), high-sensitivity C-reactive protein (hsCRP), and IL-6.
# CD4+T-cells = experiment: CFSE proliferation of CD4+T-cells in PHA-P stimulated PBMC; type: cell-based, human; details: for inhibition of the proliferation of CD4+T-cells in healthy human peripheral blood: Comparative Example 4, PHA-P 5 μg/mL, 100 ng/mL, 72 hours, FIG. 7
# Description: Healthy human peripheral blood mononuclear cells (PBMC) (purchased from ATCC) were cultured in RPMI-1640/10% FBS serum medium containing IL-2 (20IU). and then stained with CFSE (carboxyfluorescein diacetate succinimidy ester) (10 nM) at 37° C. for 10 minutes, washed twice with the above medium, followed by addition of PHA-P (phytohemagglutinin P) (5 μg/mL) to stimulate cell proliferation with or without addition of T8 compound (100 nM).
# The cells were washed with the medium twice, PHA-P (5 μg/mL) was added, and the test compound T8 or triptolide (100 ng/mL each) was added at the same time. After 72 hours at 37° C. the cells were collected, stained with anti-CD4-PE antibody at 4°° C. for 30 minutes, and washed with FACS buffer twice. The cell proliferation was analyzed by flow cytometry.
# NF-κB = NF-κB luciferase reporter (p3κB-luc) assay in HEK293T cells; type: cell-based; details: for inhibition of the activity of the NF-κB signal pathway activated by TNF-α / inhibition of the activity of the background NF-κB signaling pathway: Comparative Example 2, HEK293T, FIG. 5; for inhibition of the activity of the NF-κB signal pathway activated by TNF-α: TNF-α 20 ng/ml; for inhibition of the activity of the background NF-κB signaling pathway: no TNF-α
# Description: NF-κB driven […] expression plasmid (p3κB-luc, 100 ng) and internal reference plasmid pBgal (purchased from Bioonline: www.bioon.com.cn) (pSV-β-Galactosidase Control Vector, β-galactosidase expression plasmid, 5 ng) were transfected into HEK293T cells (purchased from ATCC). […] After another 24 hours, all cells were collected and lysed with reporter lysis buffer (purchased from Promega). Luciferase assay system (Promega) was used to detect luciferase activity. Beta-Glo Asaay system (Promega) was used to detect β-Galactosidase activity, and the inhibition effects of T8 on NF-κB activity was analyzed.
# The NF-κB reporter gene plasmid p3κB-luc was transfected into HEK293T cells for expression, and pSV-β-Galactosidase Control Vector was co-transfected as transfection internal reference. The activation of NF-κB was induced by TNF-α treatment. T8 and triptolide were added respectively. The expression of NF-κB reporter gene was indicated by detecting luciferase activity, and the effect of T8 and triptolide on NF-κB activation induced by TNF-α was evaluated.
# Cell transfection: HEK293T cells were transfected with lipofectamine 2000 Transfection Reagent according to the reagent instructions. 100 ng of plasmid was transfected with 1 μL of transfection reagent into each well of a 24-well cell cultureplate. The plasmid and the transfection reagent were diluted with […] of OPTI-MEM medium, respectively and then mixed together. The mixture was allowed to stand at room temperature for 5 minutes, and then added into the cells in each well. The resulting mixture was mixed gently, placed back into the 37° C. incubator, and the cells were cultured for a specified time.
# Luciferase activity detection: NF-κB reporter gene plasmid p3κB-luc plasmid (100 ng), internal reference plasmid pSV-β-Galactosidase Control Vector (5 ng) were transfected into HEK293T cells. After 24 hours. TNF-α (20 ng/ml) was added (or not added) to stimulate the cells for 24 hours, and then the cells were collected and lysed with reporter lysis buffer. Luciferase assay system was used to detect luciferase activity. and Beta-Glo Asaay system was used to detect β-Galactosidase activity.
# [1] = Phase II trial: safety (adverse events); type: in vivo, human; details: for participants with treatment-emergent adverse events (TEAEs): placebo 80.7%
# Description: as §2
# Safety endpoints included occurrence of adverse events (AEs) and serious adverse events (SAEs) over the study period. Adverse events included those related to the study drug; all serious adverse events; and abnormal laboratory test values at each study visit.
# The efficacy analysis was based on the full analysis set (FAS), which included all randomized patients with at least one posttreatment efficacy assessment, and the per-protocol set (PPS), which included patients who completed the study with proper study drug exposure and without any major protocol violations. The safety analysis was based on the safety analysis set (SAS), which included all randomized patients who received at least one dose of study drug. All safety results were descriptive, listed and summarized.
# MTT cytotoxicity test = type: cell-based; details: human, HEK293T cells, read-out: CC50 (50% Cytotoxic Concentration)
# Description: MTT colorimetric method was used to detect the cytotoxicity. HEK293T cells were seeded into 96-well plates (1×10^4/100 μL/well), 100 μL of each concentration of the compounds (compound concentration refers to the figures) was added in triplicate. Control wells without compound were setting at the same time. The cells were incubated in a 37° C. 5% CO2 cell incubator for 72 hours. 100 μL of the supernatant was aspirated from each well and discarded, followed by addition of 20 μL of MTT solution (5 mg/mL) into the wells. […] The absorbance was measured at 595 nm. The CC50 value (50% Cytotoxic Concentration) was calculated, i.e., the concentration of the compound required for producing toxicity on 50% of HEK293T cells.
# CD4+T-cell subsets = experiment: Activation of CD4+T-cell subsets (CD38, HLA-DR expression by flow cytometry); details: for inhibition of immune activation of CD4+T-cell subsets by PMA+Ionomycin (CD38, HLA-DR): Comparative example 3, PMA 100 nM + Ionomycin 1 μM, 100 ng/ml; for inhibition of immune activation of CD4+T-cell subsets by PMA+Ionomycin (CD38, HLA-DR) / inhibition of immune activation of CD4+T-cell subsets by anti-CD3/CD28 antibody (CD38, HLA-DR): 72 hours; for inhibition of immune activation of CD4+T-cell subsets by anti-CD3/CD28 antibody (CD38, HLA-DR): Comparative example 3, isolated CD4+T-cells, anti-CD3/CD28 beads
# Description: After 48 hours, the cells were stained with anti-human CD4, CD38, HLA-DR flow cytometry antibody (purchased from Invitrogen), and the CD4^+T-cells were gated by flow cytometry to detect the expression of CD38, HLA-DR molecules on the cell surface.
# Freshly isolated healthy human PBMC (3×10^7 cells) were cultured in cell culture medium containing IL-2 (20 IU/mL), stimulated with PMA (100 nM) and Ionomycin (1 μM) for 72 hours, and the compound to be tested (100 ng/ml) was added at the same time: the cells were washed twice with FACS buffer, followed by addition of anti CD3-PerCP, CD4-PE, CD38-PE-Cy7. HLA-DR-APC antibodies, stained for 30 minutes at 4° C.: the cells were washed twice with FACS buffer, and the expression of the above molecules was detected by FACS.
# CD4^+T-cells were isolated from freshly isolated healthy human PBMCs with anti-CD4 antibody-coated magnetic beads through positive screening and then cultured in a medium containing IL-2 (20 IU/mL). The cell activation was stimulated with anti-CD3/CD28 antibody-coated magnetic beads for 72 hours, and the compound to be tested was added at the same time. The cells were collected, washed twice with FACS buffer, followed by addition of anti CD3-PerCP, CD4-PE, CD38-PE-Cy7, HLA-DR-APC antibodies, stained at 4° C. for 30 minutes: the cells were washed twice with FACS buffer and collected, and the expression of the above molecules was detected by flow cytometry.
# HIV-1 = experiment: Phase II trial: plasma HIV-1 viral load; type: in vivo, human; details: all participants, with ART, 48 weeks
# Description: Plasma HIV-1 viral load was measured at Peking Union Medical College Hospital (PUMCH) Lab by COBAS AmpliPrep/COBAS TaqMan V2.0 RT-PCR (Roche). The lower detection limit is 20 copies per milliliter.
# [2] = test system: high-sensitivity C-reactive protein (hsCRP); experiment: Phase II trial: hsCRP; type: in vivo, human; details: 1 mg daily (HT8), Week 48
# Description: as §1, §2, §3
# CD4 counts = experiment: Phase II placebo-controlled trial in HIV immunological non-responders: CD4 counts; type: in vivo, human; details: for participants with a CD4 count increase over 50 cells/mm^3: placebo 34.6%; for mean absolute increase of CD4 count from baseline: week 48, placebo 32; for CD4 count at Week 48: FAS, with ART
# [3] = test system: interferon-γ-induced protein 10 (IP-10); experiment: Phase II trial: serum IP-10; type: in vivo, human; set-up: mean change of serum interferon-γ-induced protein 10: unit not given here; details: placebo −22.8; for mean change of serum IP-10 level: Week 48
# Description: as §1, §2, §3
# The primary efficacy differences between treatments on CD4 counts and inflammatory marker level were assessed through the t-test and analysis of covariance (ANCOVA) model. The ANCOVA model, including the baseline CD4 counts as the covariate, study group and center as fixed factors, generated the Least square means (LSMEANs) and relative 95% confidence interval (95% CI) in both FAS and PPS.
# CD8 T cells = experiment: Phase II trial: cellular activation of CD8 T cells (CD38, HLA-DR); type: in vivo, human; details: among the three groups (0.5 mg, 1 mg, placebo), 62 participants
# Description: T-cell subsets were measured using CytoFlex flow cytometer (Beckman Coulter Life Science) at participating centers, including T cells (CD45+CD3+), CD4 T cells (CD45+CD3+CD4+), and CD8 T cells (CD45+CD3+CD8+). In PUMCH Lab. exploratory CD8 markers (CD45+CD3+CD8+CD38+ and CD45+CD3+CD8+HLA-DR+) were further measured for participants in three Beijing centers.
smiles,measurement,setting,value
"CC(C)[C@]12O[C@H]1[C@@H]1O[C@]13[C@]1(O[C@H]1C[C@@]1(O)C4=C(CC[C@]31C)C(=O)OC4)[C@@H]2O [T8, (5R)-5-hydroxytriptolide]",change of IL-6,IL-6,slight decrease
same,inhibition of the proliferation of CD4+T-cells in healthy human peripheral blood,CD4+T-cells,significantly inhibit
same,proliferation of CD4+T cells stimulated by PHA (cell proliferation),"CD4+T-cells; Example 2, PBMC, PHA-P 5 μg/mL, 100 nM, 48 h, without compound 16.6%",1.9%
same,inhibition of the activity of the NF-κB signal pathway activated by TNF-α,NF-κB,effectively inhibit
same,inhibition of the activity of the background NF-κB signaling pathway,NF-κB,effectively inhibit
same,inhibition of background NF-κB activity (untreated with TNF-alpha),"NF-κB; Example 1, HEK293T, 100 nM, 24 h, FIG. 1",effectively inhibit
same,inhibition of NF-κB activity stimulated by TNF-alpha,"NF-κB; Example 1, HEK293T, TNF-alpha 20 ng/mL, 100 nM, 24 h, FIG. 1",effectively inhibit
same,participants with treatment-emergent adverse events (TEAEs),"[1]; 0.5 mg daily (LT8), 48 weeks",84.3%
same,drug-related SAEs,"[1]; 0.5 mg or 1 mg daily, 48 weeks",No drug-related SAEs were reported
same,tolerability,"[1]; 0.5 mg or 1 mg daily, all participants",well-tolerated
same,participants with treatment-emergent adverse events (TEAEs),"[1]; 1 mg daily (HT8), 48 weeks",89.1%
same,TEAEs ≥Grade 3,"[1]; 1 mg daily (HT8), mostly neutrophil decrease and dyslipidemia",slightly more frequent
same,CC50 at 72 h,MTT cytotoxicity test,~0.435 µg/mL
same,"inhibition of immune activation of CD4+T-cell subsets by PMA+Ionomycin (CD38, HLA-DR)",CD4+T-cell subsets,significantly inhibit
same,"inhibition of immune activation of CD4+T-cell subsets by anti-CD3/CD28 antibody (CD38, HLA-DR)",CD4+T-cell subsets,significantly inhibit
same,HLA-DRCD4/CD4,"CD4+T-cell subsets; Example 3, PBMC, PMA 20 nM + Ionomycin 1 μM, 100 nM, 48 h, without compound 36.3%",3.5%
same,CD38CD4/CD4,"CD4+T-cell subsets; Example 3, PBMC, PMA 20 nM + Ionomycin 1 μM, 100 nM, 48 h, without compound 41.6%",31%
same,virological suppression during the study,HIV-1,virologically-suppressed
same,change of HsCRP,[2],slight decrease
same,participants with a CD4 count increase over 50 cells/mm^3,"CD4 counts; 0.5 mg daily (LT8), Week 48",45.1%
same,mean absolute increase of CD4 count from baseline,CD4 counts; 0.5 mg daily (LT8),49 cells/mm^3
same,CD4 increase in participants with a baseline CD4 count 200-350 cells/mm^3,CD4 counts; 1 mg daily (HT8) over placebo,consistent superiority
same,participants achieving a CD4 increase >20% (superiority),"CD4 counts; 1 mg daily (HT8), Week 48",unremarkable
same,participants with a CD4 count increase over 50 cells/mm^3,"CD4 counts; 1 mg daily (HT8), Week 48",50%
same,participants achieving a CD4 increase >20%,"CD4 counts; 1 mg daily (HT8), week 24, versus other groups",more participants
same,mean absolute increase of CD4 count from baseline,CD4 counts; 1 mg daily (HT8),63 cells/mm^3
same,mean increase of CD4 count in participants over 45 years old,"CD4 counts; 1 mg daily, 48 weeks, placebo 20",96 cells/mm^3
same,CD4 count at Week 48,"CD4 counts; 0.5 mg daily oral (LT8), 48 weeks",299 cells/mm^3
same,CD4 count at Week 48,"CD4 counts; 1 mg daily oral (HT8), 48 weeks",303 cells/mm^3
same,effect on CD4 in participants with a baseline CD4 count below 200 cells/mm^3,CD4 counts; Week 48,insignificant
same,changes of CD4/CD8 ratio,"CD4 counts; Week 48, between the three groups (0.5 mg, 1 mg, placebo)",comparable
same,benefit in CD4 counts in participants receiving SARS-COV-2 vaccination,"CD4 counts; high-dose (1 mg), stratified analysis",insignificant
same,mean change of serum IP-10 level,[3]; 0.5 mg daily (LT8),-42.5 pg/mL
same,mean change of serum interferon-γ-induced protein 10,"[3]; 1 mg daily (HT8), 48 weeks",−72.1
same,mean change of serum IP-10 level,[3]; 1 mg daily (HT8),-72.1 pg/mL
same,surface expressions of CD38 or HLA-DR on CD8 T cells,CD8 T cells,comparable
CC(C)[C@]12O[C@H]1[C@@H]1O[C@]13[C@]1(O[C@H]1C[C@H]1C4=C(CC[C@@]13C)C(=O)OC4)[C@@H]2O [triptolide],inhibition of the proliferation of CD4+T-cells in healthy human peripheral blood,CD4+T-cells,significantly inhibit
same,inhibition of the activity of the NF-κB signal pathway activated by TNF-α,NF-κB,effectively inhibit
same,inhibition of the activity of the background NF-κB signaling pathway,NF-κB,effectively inhibit
same,CC50 at 72 h,MTT cytotoxicity test,~0.017 µg/mL
same,"inhibition of immune activation of CD4+T-cell subsets by PMA+Ionomycin (CD38, HLA-DR)",CD4+T-cell subsets,significantly inhibit
same,"inhibition of immune activation of CD4+T-cell subsets by anti-CD3/CD28 antibody (CD38, HLA-DR)",CD4+T-cell subsets,significantly inhibit
